Laboratory results reported in patent US8106055B2, “Substituted amide compounds” (Gruenenthal GmbH, priority 2007, dated 2012).

Key:
human μ opiate receptor = target: T1, human μ opiate receptor (Homo sapiens, UniProt P35372); test: Affinity for the human μ opiate receptor ([3H]-naloxone displacement, CHO-K1 receptor membrane preparation, SPA); assay type: binding; conditions: test concentration of 1 μM; read-out: μ (binding on the μ opioid receptor, % inhibition)
T1 construct: purchased PerkinElmer Life Sciences, Zaventem, Belgium RB-HOM; host or cells: CHO-K1 cells (membrane preparation)
T1 sequence (P35372 whole entry): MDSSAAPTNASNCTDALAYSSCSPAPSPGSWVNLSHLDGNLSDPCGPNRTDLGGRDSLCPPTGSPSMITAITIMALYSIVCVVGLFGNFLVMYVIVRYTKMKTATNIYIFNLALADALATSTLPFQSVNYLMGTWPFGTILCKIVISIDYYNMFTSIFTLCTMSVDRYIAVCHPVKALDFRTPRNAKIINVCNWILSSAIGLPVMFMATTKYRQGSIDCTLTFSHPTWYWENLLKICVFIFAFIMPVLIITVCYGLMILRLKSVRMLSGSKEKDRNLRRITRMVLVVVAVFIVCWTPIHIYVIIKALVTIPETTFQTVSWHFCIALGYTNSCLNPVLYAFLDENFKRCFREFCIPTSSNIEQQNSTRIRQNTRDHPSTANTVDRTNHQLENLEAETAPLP
Summary of the method: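 SPA, CHO-K1 hμ membranes; 1 nmol/l [3H]-naloxone; Tris-HCl 50 mmol/l + 0.06% BSA; 90 min RT; NSB with 100 μmol/l naloxone; β-counting. Readout: % inhibition of specific binding at 1 μM test compound.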

[1] = target: T2, serotonin (5-HT) reuptake (Rattus norvegicus, UniProt P31652); test: Inhibition of serotonin (5HT) reuptake in synaptosomes from rat brain; assay type: biochemical; conditions: test concentration of 10 μM; read-out: 5-HT (inhibition of reuptake of serotonin, % inhibition)
T2 construct: synaptosomes are freshly isolated from areas of the rat brain; from tissue; host or cells: rat brain synaptosomes (P2 fraction)
T2 sequence (P31652 whole entry): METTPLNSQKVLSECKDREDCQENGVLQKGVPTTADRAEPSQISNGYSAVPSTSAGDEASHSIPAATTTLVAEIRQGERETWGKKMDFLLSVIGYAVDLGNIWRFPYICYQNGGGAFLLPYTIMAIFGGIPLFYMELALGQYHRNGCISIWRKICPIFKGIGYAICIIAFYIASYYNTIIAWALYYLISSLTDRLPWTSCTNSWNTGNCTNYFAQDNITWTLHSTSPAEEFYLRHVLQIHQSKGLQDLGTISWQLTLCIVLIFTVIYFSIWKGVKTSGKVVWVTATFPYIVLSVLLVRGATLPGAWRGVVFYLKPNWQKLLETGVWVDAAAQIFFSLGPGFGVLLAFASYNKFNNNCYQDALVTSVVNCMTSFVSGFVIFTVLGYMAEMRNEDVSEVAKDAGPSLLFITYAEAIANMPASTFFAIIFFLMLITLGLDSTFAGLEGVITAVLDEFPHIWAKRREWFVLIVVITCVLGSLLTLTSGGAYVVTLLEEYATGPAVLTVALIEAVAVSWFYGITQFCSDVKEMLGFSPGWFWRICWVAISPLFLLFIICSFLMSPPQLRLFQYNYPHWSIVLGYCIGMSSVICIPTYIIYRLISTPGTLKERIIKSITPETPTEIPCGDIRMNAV
Summary of the method: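 Compounds screened at 10 μM and reported as percent inhibition of serotonin uptake. Uptake measured in a freshly prepared P2 synaptosomal fraction from rat brain.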

| SMILES | inhibition at 1 µM (human μ opiate receptor) [%] | inhibition at 10 µM [1] [%] |
| --- | --- | --- |
| CN(C)C(c1ccccc1)C1CCC(CNC(=O)COCC2CCCCN2S(=O)(=O)c2ccc(Cl)c(Cl)c2)CC1 (stereo not shown) [Example 17, 2-((1-(3,4-dichlorophenylsulfonyl)piperidin-2-yl)methoxy)-N-((4-((dimethylamino)(phenyl)methyl)cyclohexyl)methyl)acetamide] | 98 | 93 |
| Cc1cc(C)c(S(=O)(=O)N2CCC(OCC(=O)NC3CCC(C(c4cccc(F)c4)N(C)C)CC3)C2)c(C)c1 (stereo not shown) [Example 140, N-(4-((dimethylamino)(3-fluorophenyl)methyl)cyclohexyl)-2-(1-(mesitylsulfonyl)pyrrolidin-3-yloxy)acetamide] | 83 | 72 |
| COc1cc(C)c(S(=O)(=O)N2CCC(OCC(=O)NCC3CCC(C(c4ccccc4)N(C)C)CC3)C2)c(C)c1 (stereo not shown) [Example 173, N-((4-((dimethylamino)(phenyl)methyl)cyclohexyl)methyl)-2-(1-(4-methoxy-2,6-dimethylphenylsulfonyl)pyrrolidin-3-yloxy)acetamide] | 87 | 95 |
| COc1cc(C)c(S(=O)(=O)N2CCC(OCC(=O)NCCC3CCC(C(c4cccs4)N(C)C)CC3)C2)c(C)c1 (stereo not shown) [Example 199, N-(2-(4-((dimethylamino)(thiophen-2-yl)methyl)cyclohexyl)ethyl)-2-(1-(4-methoxy-2,6-dimethylphenylsulfonyl)pyrrolidin-3-yloxy)acetamide] | 87 | 96 |
| Cc1ccc(S(=O)(=O)N2CCC(OCC(=O)NCC3CCC(C(c4cccc(F)c4)N(C)C)CC3)C2)cc1 (stereo not shown) [Example 185, N-((4-((dimethylamino)(3-fluorophenyl)methyl)cyclohexyl)methyl)-2-(1-tosylpyrrolidin-3-yloxy)acetamide] | 78 | 102 |
| COc1ccc(S(=O)(=O)N2CCCC2COCC(=O)NC2CCC(C(c3cccs3)N(C)C)CC2)cc1 (stereo not shown) [Example 162, N-(4-((dimethylamino)(thiophen-2-yl)methyl)cyclohexyl)-2-((1-(4-methoxyphenylsulfonyl)pyrrolidin-2-yl)methoxy)acetamide] | 86 | 81 |
| CCN(CCOCC(=O)NCC1CCC(C(c2cccs2)N(C)C)CC1)S(=O)(=O)c1c(C)cc(OC)c(C)c1C (stereo not shown) [Example 16, N-((4-((dimethylamino)(thiophen-2-yl)methyl)cyclohexyl)methyl)-2-(2-(N-ethyl-4-methoxy-2,3,6-trimethylphenylsulfonamido)ethoxy)acetamide] | 98 | 98 |
| COc1ccc(S(=O)(=O)N2CCC(OCC(=O)NCC3CCC(C(c4ccccc4)N(C)C)CC3)C2)cc1OC (stereo not shown) [Example 22, 2-(1-(3,4-dimethoxyphenylsulfonyl)pyrrolidin-3-yloxy)-N-((4-((dimethylamino)(phenyl)methyl)cyclohexyl)methyl)acetamide] | 97 | 87 |
| CN(C)C(c1cccs1)C1CCC(NC(=O)COCCN(Cc2ccccc2)S(=O)(=O)c2ccccc2)CC1 (stereo not shown) [Example 161, 2-(2-(N-benzylphenylsulfonamido)ethoxy)-N-(4-((dimethylamino)(thiophen-2-yl)methyl)cyclohexyl)acetamide] | 86 | 94 |
| Cc1cc(C)c(S(=O)(=O)N2CCC(OCC(=O)NCC3CCC(C(c4cccc(F)c4)N(C)C)CC3)C2)c(C)c1 (stereo not shown) [Example 141, N-((4-((dimethylamino)(3-fluorophenyl)methyl)cyclohexyl)methyl)-2-(1-(mesitylsulfonyl)pyrrolidin-3-yloxy)acetamide] | 88 | 80 |
| CN(C)C(c1cccc(F)c1)C1CCC(CNC(=O)COC2CCCCC2N(C)S(=O)(=O)c2ccc(Cl)c(Cl)c2)CC1 (stereo not shown) [Example 164, 2-(2-(3,4-dichloro-N-methylphenylsulfonamido)cyclohexyloxy)-N-((4-((dimethylamino)(3-fluorophenyl)methyl)cyclohexyl)methyl)acetamide] | 86 | 90 |
| Cc1ccc(S(=O)(=O)N(C)CCOCC(=O)NCC2CCC(C(c3ccccc3)N(C)C)CC2)cc1 (stereo not shown) [Example 157, N-((4-((dimethylamino) (phenyl)methyl)cyclohexyl)methyl)-2-(2-(N,4-dimethylphenylsulfonamido)ethoxy)acetamide] | 87 | 88 |
| COc1ccc(S(=O)(=O)N2CCC(OCC(=O)NCC3CCC(C(c4cccc(F)c4)N(C)C)CC3)C2)cc1OC (stereo not shown) [Example 184, 2-(1-(3,4-dimethoxyphenylsulfonyl)pyrrolidin-3-yloxy)-N-((4-((dimethylamino)(3-fluorophenyl)methyl)cyclohexyl)methyl)acetamide] | 91 | 88 |
| COc1cc(C)c(S(=O)(=O)N2CCC(OCC(=O)NCC3CCC(C(c4ccccc4)N(C)C)CC3)CC2)c(C)c1C (stereo not shown) [Example 143, N-((4-((dimethylamino)(phenyl)methyl)cyclohexyl)methyl)-2-(1-(4-methoxy-2,3,6-trimethylphenylsulfonyl)piperidin-4-yloxy)acetamide] | 89 | 93 |
| CN(C)C(c1cccs1)C1CCC(CNC(=O)COC2CCN(S(=O)(=O)c3cccc(C(F)(F)F)c3)C2)CC1 (stereo not shown) [Example 25, N-((4-((dimethylamino)(thiophen-2-yl)methyl)cyclohexyl)methyl)-2-(1-(3-(trifluoromethyl)phenylsulfonyl)pyrrolidin-3-yloxy)acetamide] | 97 | 82 |
| COc1ccc(S(=O)(=O)N2CCCCC2COCC(=O)NCCC2CCC(C(c3cccc(F)c3)N(C)C)CC2)cc1OC (stereo not shown) [Example 191, 2-((1-(3,4-dimethoxyphenylsulfonyl)piperidin-2-yl)methoxy)-N-(2-(4-((dimethylamino)(3-fluorophenyl)methyl)cyclohexyl)ethyl)acetamide] | 85 | 89 |
| COc1ccc(S(=O)(=O)N2CCC(OCC(=O)NC3CCC(C(c4cccs4)N(C)C)CC3)C2)cc1OC (stereo not shown) [Example 155, 2-(1-(3,4-dimethoxyphenylsulfonyl)pyrrolidin-3-yloxy)-N-(4-((dimethylamino)(thiophen-2-yl)methyl)cyclohexyl)acetamide] | 88 | 87 |
| Cc1ccc(S(=O)(=O)N2CCC(OCC(=O)NC3CCC(C(c4cccc(F)c4)N(C)C)CC3)C2)cc1 (stereo not shown) [Example 167, N-(4-((dimethylamino)(3-fluorophenyl)methyl)cyclohexyl)-2-(1-tosylpyrrolidin-3-yloxy)acetamide] | 82 | 86 |
| COc1ccc(S(=O)(=O)N2CCC(OCC(=O)NCC3CCC(C(c4cccs4)N(C)C)CC3)C2)cc1OC (stereo not shown) [Example 23, 2-(1-(3,4-dimethoxyphenylsulfonyl)pyrrolidin-3-yloxy)-N-((4-((dimethylamino)(thiophen-2-yl)methyl)cyclohexyl)methyl)acetamide] | 97 | 82 |
| CN(C)C(c1ccccc1)C1CCC(NC(=O)COCCN(C)S(=O)(=O)c2ccc(Cl)cc2Cl)CC1 (stereo not shown) [Example 33, 2-(2-(2,4-dichloro-N-methylphenylsulfonamido)ethoxy)-N-(4-((dimethylamino)(phenyl)methyl)cyclohexyl)acetamide] | 49 | 73 |
| COc1ccc(S(=O)(=O)N2Cc3ccccc3CC2COCC(=O)NCCC2CCC(C(c3cccc(F)c3)N(C)C)CC2)cc1 (stereo not shown) [Example 190, N-(2-(4-((dimethylamino) (3-fluorophenyl)methyl)cyclohexyl)ethyl)-2-((2-(4-methoxyphenylsulfonyl)-1,2,3,4-tetrahydroisoquinolin-3-yl)methoxy)acetamide] | 83 | 79 |
| Cc1ccc(S(=O)(=O)N2CCC(OCC(=O)NC3CCC(C(c4cccs4)N(C)C)CC3)C2)cc1 (stereo not shown) [Example 156, N-(4-((dimethylamino)(thiophen-2-yl)methyl)cyclohexyl)-2-(1-tosylpyrrolidin-3-yloxy)acetamide] | 80 | 87 |
| Cc1cc(C)c(S(=O)(=O)N2CCC(OCC(=O)NCC3CCC(C(c4ccccc4)N(C)C)CC3)C2)c(C)c1 (stereo not shown) [Example 26, N-((4-((dimethylamino)(phenyl)methyl)cyclohexyl)methyl)-2-(1-(mesitylsulfonyl)pyrrolidin-3-yloxy)acetamide] | 97 | 83 |
| COc1cc(C)c(S(=O)(=O)N(CCOCC(=O)NC2CCC(C(c3ccccc3)N(C)C)CC2)Cc2ccccc2)c(C)c1C (stereo not shown) [Example 193, 2-(2-(N-benzyl-4-methoxy-2,3,6-trimethylphenylsulfonamido)ethoxy)-N-(4-((dimethylamino) (phenyl)methyl)cyclohexyl)acetamide] | 85 | 92 |
| CN(C)C(c1cccs1)C1CCC(NC(=O)COCCN(C)S(=O)(=O)c2cccc(C(F)(F)F)c2)CC1 (stereo not shown) [Example 152, N-(4-((dimethylamino)(thiophen-2-yl)methyl)cyclohexyl)-2-(2-(N-methyl-3-(trifluoromethyl)phenylsulfonamido)ethoxy)acetamide] | 89 | 87 |
| CN(C)C(c1ccccc1)C1CCC(CNC(=O)COCCN(Cc2ccccc2)S(=O)(=O)c2ccccc2)CC1 (stereo not shown) [Example 15, 2-(2-(N-benzylphenylsulfonamido)ethoxy)-N-((4-((dimethylamino)(phenyl)methyl)cyclohexyl)methyl)acetamide] | 98 | 99 |
